Assay results reported in US4690935A, “Inhibition of tumor growth and metastasis with calcium channel blocker compounds” (Wayne State University, priority 1983, dated 1987).
“Also recorded” adds a separate entry of the source.

Key:
[1] = system: Walker 256 L-Pam tumor cell; experiment: Walker 256 L-Pam tumor cell attachment to plastic; type: cell-based, rat; conditions: 0.04 mg/ml; for effect on tumor cell adhesion to plastic wells (in words): thirty minutes preincubation; for inhibition at 40 µg/mL: Rattus norvegicus, Walker 256, 1 h, 1 h plating, read-out: % Inhibition vs control (attachment to plastic)
Protocol: (§1) Walker ^256 L-Pam tumor cells were plated at approximately 5×10^5 cells/flask. The cells were labelled with ^125 I-UDR (iodinated uridine deoxyribonucleic acid) at 0.5 microcuries/ml media (5.0 microcurie/flask). Cells were incubated for approximately 24 hours and the cell count/flask was determined to be 8.14×10^5 cell/flask. The cells from each flask were counted (gamma counter) and found to have an average of 0.24 cpm/cell.
(§2) Platelet enhanced tumor cell attachment to plastic was tested using four conditions: tumor cell alone (Condition A), tumor cells plus washed platelets (Condition B), tumor cells plus platelet poor plasma (Condition C) and tumor cells, washed platelets and platelet poor plasma (Condition D).
(§3) Walker 256 L-Pam tumor cells obtained from culture are radiolabeled with ^125 I-UDR as described previously. The radiolabeled cells are removed from T-75 flasks with trypsin (2 milliliters of 0.25% trypsin and 0.01% EDTA) in MEM. After two minutes, the flasks are washed 3X with trypsin "quench," 10% fetal calf serum in MEM, to quench and remove the trypsin in order to prevent cell lysis. The tumor cells are removed from the flasks in MEM and adjusted to 2.5×10^5 cells /milliliter. One hundred microliters of the tumor cell suspension (2.5×10^4 cells) were plated in […] tissue culture wells (Costar) and overlaid with 250 microliters of Wash Solution #2 (see Platelet Prep). The cells were incubated at room temperature (approximately 22° C.) for 5 minutes. Following this incubation 10 microliters of 7.35 mg/ml CaCl2 were added to the culture wells, 10 microliters of platelet poor plasma (diluted 1:32 with platelet Wash Solution #2) were added to culture wells for Conditions C and D and 250 microliters of washed platelets (3×10^8 /ml final concentration) were added to culture wells for Conditions B and D. Where appropriate, Wash Solution #2 was added to wells (Conditions A and C) so that all wells had the same final volume of solutions. The wells were incubated for one hour at 37° C. After the one hour incubation, the media containing any unattached tumor cells were removed by aspiration and then the wells were washed 2X with 1 ml of sodium phosphate buffer (PBS). The adhering cells were removed by trypsinization (as described above) and counts per wells determined using a gamma counter. Results were determined as total cpm plated per well.
The effect of BAY e 9736 on Walker 256 L-Pam tumor cell adhesion to plastic wells […] was determined by pretreating monodispersed Walker 256 L-Pam tumor cells with BAY e 9736 dissolved in DMSO prior to plating the cells. Except for the pretreatment, plastic adhesion studies were performed as previously described in the literature. A 8 mg sample of BAY e 9736 was dissolved in 1 ml of DMSO. Five microliters of the 8 mg/ml BAY e 9736 was added to each 1 ml of tumor cells.

[2] = system: Walker 256 L-Pam tumor cell; experiment: Walker 256 L-Pam tumor cell attachment to virally transformed endothelial cell monolayer (RCE-T1); type: cell-based, rat; conditions: 0.04 mg/ml; for effect on tumor cell adhesion to endothelial cell monolayer (in words): thirty minutes preincubation; for inhibition at 40 µg/mL: Rattus norvegicus, Walker 256, 1 h, 1 h plating, x ± SEM, n = 4, read-out: % Inhibition vs Control (attachment to endothelial cells)
Protocol: as §1, §2, §3
Platelet enhanced tumor cell attachment to a virally transformed endothelial cell monolayer (on plastic wells) was also tested. The experimental protocal utilized was similar to that described above. The only significant difference is that in the above assay the floor of each incubation well is the plastic material of the plate, and in these assays, that plastic floor is covered with a confluent monolayer of virally transformed rat cerebral microvascular endothelial cells. The cells were prepared and plated as described in detail in Laboratory Investigations, Vol 46, No. 6, […], 1982 (Diglio, C. A., Grammas, P., Giacomelli, F., and Wiener, J., Lab. Investigations Vol 46, No. 6, p554-563, 1982) and in J. Cell. Biol (Manuscript accepted 3/83) (Diglio, C., Wolfe, D. E., and Meyers, P. J. Cell. Biol. manuscript in press, 1983). Briefly, rat endothelial cells were dispersed from […] microvasculature by collagenase treatment. Migrating cells and cell proliferation are seen. Isolated cells are allowed to proliferate in culture until the expected "cobblestone" appearance characteristic of normal endothelial cells is obtained.
Cultured (subconfluent) normal endothelial cells are infected with Schmidt-Ruppin Rous Sarcoma virus-strain D (SR-RSV-D). A single transformed focus was isolated and recultured. The resulting transformed endothelial cell line was designated RCE-T1 (also known as SR-D1).
In the actual assay, the protocol for tumor cell adhesion to plastic or transformed endothelial cell are similar. […]

[3] = system: Platelet; experiment: Tumor cell (B16a) induced platelet aggregation (TCIPA); type: cell-based, human; conditions: for effect on tumor cell induced platelet aggregation (in words): 400 micrograms/ml to 0.4 micrograms/ml
Protocol: Blood (45 ml) was drawn from the […] vein of healthy, fasted, aspirin free (at least two weeks) human volunteers into a plastic syringe containing 5 ml of 4.8% dextrose with 50 U/ml heparin buffered by 25 mM HEPES, pH 7.5. An 18 gauge needle was used to prevent hemolysis. The heparinized blood was gently mixed by inverting the syringe five times and then the blood was transfused into two 40 ml plastic centrifuge tubes and centrifuged for 10 min at 163×g. The resulting platelet rich plasma (PRP; the supernatant fraction) was decanted using an adjustable SMI pipette set at 6 ml. Platelet poor plasma (PPP) was prepared by centrifugation of PRP for 10 min at 1086×g. Platelet poor plasma was used to standardize the platelet concentration in PRP to 3×10^8 /ml. Platelet concentrations were determined using a Coulter Model ZBI cell counter.
Platelet aggregation was measured photometrically using a Sienco Model DP-247E dual channel aggregometer and recorded on a Sienco Model B-5000 dual channel recorder. Aliquots of PRP (250 microliters at 3×10^8 platelets/ml) were transferred into aggregometry cuvettes and stirred at a constant speed of 800 RPM at 37° C. Platelet aggregation studies were designed and run as individually controlled samples. BAY e 9736 was dissolved in either PEG-400 or […] (DMSO).
BAY e 9736 in PEG-400 alone was aliquoted into the cuvettes prior to the addition of the PRP. Immediately after the addition of the PRP, the cuvettes were placed into the aggregometer. After two minutes (to allow for the stabilization of the platelet preparation and mixing of the BAY e 9736), ADP or tumor cells were added in 20 microliter aliquots to induce platelet aggregation.
A 20 milligram sample of BAY e 9736 was dissolved in 1 ml of polyethylene glycol (PEG-400) and serially diluted with PEG-400 to 2, 0.2 and 0.02 mg/ml concentrations using PEG-400. Tumor cell induced platelet aggregation (TCIPA) studies were performed as described previously. The effect of BAY e 9736 on TCIPA was determined by the mixing of 2 or 5 microliter aliquots of 20, 2, 0.2 or 0.02 mg/ml BAY e 9736 and the platelet rich plasma (PRP) for approximately 3 minutes prior to the addition of tumor cells.

[4] = D = tumor cells + PPP + platelets

Structure (SMILES): COCCOC(=O)C1=C(C)NC(C)=C(C(=O)OC(C)C)C1c1cccc([N+](=O)[O-])c1 (stereo not drawn) [BAY e 9736, 1,4-dihydro-2,6-dimethyl-4-(3' nitrophenyl)-pyridine-3-(beta-methyoxyethylester)-5-(isopropyl ester)]
- effect on tumor cell adhesion to plastic wells (in words) [1]: decreased the percent of cells adhering to the plastic wells; also recorded: significant in all groups tested
- effect on tumor cell adhesion to plastic wells (in words) ([1]; listed as nimodipine): decreases or inhibits the adhesion of tumor cells to plastic incubation wells
- inhibition at 40 µg/mL ([1]; A = tumor cells alone): 72%
- inhibition at 40 µg/mL ([1]; B = tumor cells + platelets): 50 ± 8.2%
- inhibition at 40 µg/mL ([1]; C = tumor cells + PPP): 44 ± 9.2%
- inhibition at 40 µg/mL [1, 4]: 40 ± 7.5%
- effect on tumor cell adhesion to endothelial cell monolayer (in words) [2]: decreased the percent of cells adhering to the plastic wells as well as the endothelial cell monolayer; also recorded: significant in all groups tested
- effect on tumor cell adhesion to endothelial cell monolayer (in words) ([2]; listed as nimodipine): decreases or inhibits the adhesion of tumor cells to plastic incubation wells and to virally transformed endothelial cell monolayers
- inhibition at 40 µg/mL ([2]; A = tumor cells alone): 50%
- inhibition at 40 µg/mL ([2]; B = tumor cells + platelets): 65 ± 7.8%
- inhibition at 40 µg/mL ([2]; C = tumor cells + PPP): 60 ± 5%
- inhibition at 40 µg/mL [2, 4]: 53 ± 5.5%
- % Inhibition of Tumor Cell Induced Platelet Aggregation ([3]; 0.00015 mg/ml final): No effect
- % Inhibition of Tumor Cell Induced Platelet Aggregation ([3]; 0.004 mg/ml final (second line so printed, below 0.0015)): No effect
- effect on tumor cell induced platelet aggregation (in words) [3]: does inhibit TCIPA
- effect on tumor cell induced platelet aggregation (in words) ([3]; listed as nimodipine): greatly inhibit platelet aggregation induced by tumor cells
- inhibition at 1.5 µg/mL ([3]; Homo sapiens, Platelet, 0.0015 mg/ml final, x ± SEM, n = 3): 12 ± 4.1%
- inhibition at 4 µg/mL ([3]; Homo sapiens, Platelet, 0.004 mg/ml final, x ± SEM, n = 3): 19 ± 5.9%
- inhibition at 15 µg/mL ([3]; Homo sapiens, Platelet, 0.015 mg/ml final, x ± SEM, n = 3): 32 ± 3.5%
- inhibition at 40 µg/mL ([3]; Homo sapiens, Platelet, 0.04 mg/ml final, x ± SEM, n = 3): 55 ± 7.7%
- inhibition at 150 µg/mL ([3]; Homo sapiens, Platelet, 0.15 mg/ml final, x ± SEM, n = 3): 67 ± 8.5%
- inhibition at 400 µg/mL ([3]; Homo sapiens, Platelet, 0.4 mg/ml final, x ± SEM, n = 3): 85 ± 9.6%
- effect on platelet aggregation, dissolved in PEG-400 vs DMSO ([3]; preliminary aggregometry studies): no statistically significant differences
